Each structure is given as a SMILES string. Where two headings read alike, the source gives them in different places.

The target in one series is hCA IX (Homo sapiens, UniProt Q16790). As to the kind of experiment: stopped-flow CO2 hydrase assay, hCA IX. The settings on record: recombinant hCA IX, 6 h preincubation, mean from three assays, errors ±5–10%.
The next series addresses hCA I (Homo sapiens, UniProt P00915). As to the kind of experiment: stopped-flow CO2 hydrase assay, hCA I.
In the next series the target is hCA II (Homo sapiens, UniProt P00918). As to the kind of experiment: stopped-flow CO2 hydrase assay, hCA II.
Another series has as its target hCA XII (Homo sapiens, UniProt O43570). As to the kind of experiment: stopped-flow CO2 hydrase assay, hCA XII.
On the set-up of series [1]: method as in PMID 20024932. As to conditions: hepatotoxic effect of coumarin; cited from earlier work.

Chain of hCA XII (O43570 25-354): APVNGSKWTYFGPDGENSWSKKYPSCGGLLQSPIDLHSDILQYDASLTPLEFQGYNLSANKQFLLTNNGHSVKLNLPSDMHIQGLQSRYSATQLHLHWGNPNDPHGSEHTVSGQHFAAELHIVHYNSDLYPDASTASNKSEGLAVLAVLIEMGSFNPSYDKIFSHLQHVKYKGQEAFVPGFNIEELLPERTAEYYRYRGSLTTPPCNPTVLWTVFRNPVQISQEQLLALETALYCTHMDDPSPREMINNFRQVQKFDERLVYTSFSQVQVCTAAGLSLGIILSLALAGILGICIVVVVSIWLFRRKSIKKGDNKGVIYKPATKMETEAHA
Chain of hCA I (P00915 whole entry): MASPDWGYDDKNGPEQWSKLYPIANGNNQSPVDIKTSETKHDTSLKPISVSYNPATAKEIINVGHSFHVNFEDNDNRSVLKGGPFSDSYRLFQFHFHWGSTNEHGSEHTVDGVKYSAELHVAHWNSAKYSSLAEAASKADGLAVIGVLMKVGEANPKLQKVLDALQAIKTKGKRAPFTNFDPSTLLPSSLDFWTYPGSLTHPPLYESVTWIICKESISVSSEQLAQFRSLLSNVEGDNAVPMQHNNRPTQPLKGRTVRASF
Description for hCA II: (§1) An Applied Photophysics stopped-flow instrument has been used for assaying the CA catalyzed CO2 hydration activity [24]. […] The uncatalyzed rates were determined in the same manner and subtracted from the total observed rates. Stock solutions of inhibitor (0.1 mM) were prepared in distilled-deionized water and dilutions up to 0.005 nM were done thereafter with the assay buffer. Inhibitor and enzyme solutions were preincubated together for 6 hours at room temperature prior to assay, in order to allow for the formation of the E-I complex. The inhibition constants were obtained by nonlinear least-squares methods using PRISM 3 (GraphPad Software, San Diego, CA, USA) and the Cheng–Prusoff equation, as reported by Maresca et al. [14], and represent the mean from at least three different determinations. All CA isoforms were recombinant ones obtained in-house.
Description for hCA IX: as §1
Description for hCA XII: as §1

On to `Cc1cc(=O)oc2c(CN3CCN(c4ccccc4)CC3)c(O)ccc12` [Compound 7, 7-Hydroxy-4-methyl-8-(4-phenylpiperazin-1-ylmethyl)chromen-2-one], for which the Ki on hCA IX (Ki (nM) hCA IX) was 115 nM; at hCA I it was over 10000 nM; at hCA II, over 10000 nM; at hCA XII, 7.7 nM.
On to `Cc1cc(=O)oc2c(CN3CCN(C)CC3)c(O)ccc12` [Compound 3, 7-Hydroxy-4-methyl-8-(4-methylpiperazin-1-ylmethyl)chromen-2-one], for which the Ki is 88.7 nM at hCA IX (Ki (nM) hCA IX), over 10000 nM at hCA I, over 10000 nM at hCA II and 9.6 nM at hCA XII.
As for `CCN1CCN(Cc2c(O)ccc3c(C)cc(=O)oc23)CC1` [Compound 4, 8-(4-Ethylpiperazin-1-ylmethyl)-7-hydroxy-4-methylchromen-2-one], the Ki on hCA IX (Ki (nM) hCA IX) was 32 nM; at hCA I, over 10000 nM; on hCA II it was over 10000 nM; at hCA XII, 6.4 nM.
Consider `Cc1cc(=O)oc2c(CN3CCN(c4ccc(Cl)cc4)CC3)c(O)ccc12` [Compound 8, 8-[4-(4-Chlorophenyl)piperazin-1-ylmethyl]-7-hydroxy-4-methylchromen-2-one], for which the Ki on hCA IX (Ki (nM) hCA IX) is 190 nM; at hCA I, over 10000 nM; at hCA II it was over 10000 nM; on hCA XII it was 8.9 nM.
Consider `O=c1ccc2ccccc2o1` [coumarin], for which, in series [1], the tolerable daily intake was 0.1 mg/kg body weight.
Take `Cc1cc(=O)oc2c(CN3CCN(c4ccc(F)cc4)CC3)c(O)ccc12` [Compound 9, 8-[(4-(4-Fluorophenyl)piperazin-1-yl)methyl]-7-hydroxy-4-methylchromen-2-one]: the Ki at hCA IX (Ki (nM) hCA IX) is 92.8 nM; on hCA I it was over 10000 nM; at hCA II, over 10000 nM; on hCA XII, 8.1 nM.
For `C=CCN1CCN(Cc2c(O)ccc3c(C)cc(=O)oc23)CC1` [Compound 6, 8-(4-Allylpiperazin-1-ylmethyl)-7-hydroxy-4-methylchromen-2-one], the Ki was 27.1 nM at hCA IX (read-out: Ki (nM) hCA IX), over 10000 nM at hCA I, over 10000 nM at hCA II and 5.6 nM on hCA XII.
For `Cc1cc(=O)oc2c(CN3CCN(Cc4c(O)ccc5c(C)cc(=O)oc45)CC3)c(O)ccc12` [Compound 2, 1,4-bis[(7-Hydroxy-4-methylcoumarin-8-yl)methyl] piperazine], the Ki at hCA IX (Ki (nM) hCA IX) is 67.5 nM; at hCA I it was over 10000 nM; on hCA II, over 10000 nM; at hCA XII it was 8.5 nM.
On to `Cc1cc(=O)oc2c(CN3CCN(c4ccc(Br)cc4)CC3)c(O)ccc12` [Compound 10, 7-Hydroxy-8-[4-(bromophenyl)-piperazin-1-ylmethyl]-4-methylchromen-2-one], for which the Ki at hCA IX (Ki (nM) hCA IX) is 162 nM; on hCA I, over 10000 nM; on hCA II it was over 10000 nM; on hCA XII, 9.4 nM.
`Cc1cc(=O)oc2cc(O)ccc12` [Compound 1, 7-Hydroxy-4-methylchromen-2-one]: the Ki was 32.1 nM at hCA IX (Ki (nM) hCA IX), over 10000 nM on hCA I, over 10000 nM on hCA II and 5.8 nM on hCA XII.
`Cc1ccc(N2CCN(Cc3c(O)ccc4c(C)cc(=O)oc34)CC2)cc1` [Compound 11, 7-Hydroxy-4-methyl-8-(4-p-tolyl-piperazin-1-ylmethyl)chromen-2-one]: the Ki is 308 nM on hCA IX (Ki (nM) hCA IX), over 10000 nM at hCA I, over 10000 nM on hCA II and 9.6 nM at hCA XII.
`Cc1cc(=O)oc2c(CN3CCN(c4ccccc4F)CC3)c(O)ccc12` [Compound 12, 8-[4-(2-Fluorophenyl)piperazin-1-ylmethyl]-7-hydroxy-4-methylchromen-2-one]: the Ki was 121 nM on hCA IX (Ki (nM) hCA IX), over 10000 nM on hCA I, over 10000 nM on hCA II and 26.4 nM on hCA XII.
As to `Cc1cc(=O)oc2c(CN3CCN(CCO)CC3)c(O)ccc12` [Compound 5, 7-Hydroxy-8-[4-(2-hydroxyethyl)piperazin-1-ylmethyl]-4-methylchromen-2-one], the Ki is 295 nM at hCA IX (Ki (nM) hCA IX), over 10000 nM on hCA I, over 10000 nM at hCA II and 7.1 nM on hCA XII.
In the case of `Cc1cc(=O)oc2c(CN3CCN(Cc4ccc5c(c4)OCO5)CC3)c(O)ccc12` [Compound 13, 8-(4-Benzo[1,3]dioxol-5-ylmethyl-piperazin-1-ylmethyl)-7-hydroxy-4-methyl-chromen-2-one], the inhibition constant (Ki) on hCA IX (Ki (nM) hCA IX) is 76.8 nM; at hCA I, over 10000 nM; at hCA II, over 10000 nM; on hCA XII it was 8.5 nM.

By Ki is commonly meant the equilibrium dissociation constant of an inhibitor or competing ligand from its target.

These data come from paper PMC6429297, “Novel 8-Substituted Coumarins That Selectively Inhibit Human Carbonic Anhydrase IX and XII” (International Journal of Molecular Sciences, 2019).
